Values belong to the sequence of their own block, whether it stands above or below them. No end group written: not given here.
Tests used:
[1] = test system: TGF-β1 binding to intact human plasma FN; test: Inhibition of I125 TGF-β1 binding to immobilized FN by growth factor peptide; settings: increasing concentrations of peptide; 25° C., 2 hours
Experimental: (§1) FIG. 9. Inhibition of TGF-β1 and PDGF-BB binding to intact human plasma FN with TGF-β1 and PDGF-BB FN-binding peptides, respectively. FN was adsorbed onto tissue culture plastic at a concentration of 0.125 μM and then excess protein-binding sites of the plastic blocked with 2% bovine serum albumin. Growth factor labeled with I^125 was incubated with FN-coated plates at 25° C. for 2 hours in the presence or absence of peptide. Data was calculated as [(GF binding in presence of peptide−background)/(GF binding in absence of peptide-background)]×100. n=3.
(§2) Two of these synthetic peptides (homologous to TGF-β1 and homologous to PDGF-BB) inhibit TGF-β1 and PDGF-BB binding to FN respectively (FIG. 9). Inhibition of TGF-β1 and PDGF-BB binding to intact human plasma FN was determined as follows. FN was adsorbed onto tissue culture plastic at a concentration of 0.125 μM and then excess protein-binding sites of the plastic blocked with 2% bovine serum albumin. Growth factor labeled with I^125 was incubated with FN-coated plates at 25° C. for 2 hours in the presence or absence of peptide. For example, relative binding of TGF-β1 to immobilized FN was determined for increasing concentrations of the synthetic peptide homologous to TGF-β1. […] For example, relative binding of PDGF-BB to immobilized FN was determined for increasing concentrations of the synthetic peptide homologous to PDGF-BB. […]

[2] = test system: PDGF-BB binding to intact human plasma FN; test: Inhibition of I125 PDGF-BB binding to immobilized FN by growth factor peptide; settings: increasing concentrations of peptide; 25° C., 2 hours
Chain of PDGF-BB binding to intact human plasma FN (P02751 610-812 limits assumed): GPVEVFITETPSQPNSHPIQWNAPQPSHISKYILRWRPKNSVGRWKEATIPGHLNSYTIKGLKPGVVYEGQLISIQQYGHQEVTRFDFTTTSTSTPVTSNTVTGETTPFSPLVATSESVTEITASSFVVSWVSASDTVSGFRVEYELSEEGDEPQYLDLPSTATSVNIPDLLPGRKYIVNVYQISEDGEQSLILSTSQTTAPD
Chain of PDGF-BB binding to intact human plasma FN (P02751 1815-2080 limits assumed): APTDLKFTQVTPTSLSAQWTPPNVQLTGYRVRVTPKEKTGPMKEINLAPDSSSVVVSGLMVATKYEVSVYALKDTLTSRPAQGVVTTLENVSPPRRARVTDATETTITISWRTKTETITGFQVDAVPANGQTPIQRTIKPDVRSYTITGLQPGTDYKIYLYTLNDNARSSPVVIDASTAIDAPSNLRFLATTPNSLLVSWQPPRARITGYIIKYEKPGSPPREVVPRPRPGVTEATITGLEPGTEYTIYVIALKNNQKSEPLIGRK
Experimental: as §1, §2

[3] = test system: FN-null cells; test: FN-null cell assay, peptides added directly to medium on FNIII8-11; assay type: cell-based, mouse; settings: peptide added directly to media with or without PDGF-BB
Experimental: FIG. 6. FN-null fibroblast response to soluble, unconjugated P5 (SEQ ID NO:37). FN-null cells were cultured at 4,000 cells/well in 96 well plates precoated with 0.125 mM of FNIII8-11 in DMEM for 4 hrs, and then further incubated in DMEM+2% BSA with or without the indicated concentrations of Peptide 5 at 37° C. for 3 days. Cells were counted in three 10× fields in each of 4 wells (mean±SD, n−12).
Scrambled variants of peptides 1 and 5 had no activity in these assays.
Variants of peptide 5 derived from fibronectin were generated by removing one amino acid at a time from the N-terminus or C-terminus of Peptide 5 (Table 2). These peptides (P12-P24) were added directly to medium with or without PDGF-BB.

[4] = test system: AHDF cells; test: AHDF proliferation response to PDGF-BB, XTT assay; assay type: cell-based, human; settings: 30 ng/mL PDGF-BB, 1 week
Experimental: FIG. 7. […] AHDF cells were cultured at 4,000 cells/well in uncoated 96-well plates. Cells were incubated in DMEM for 4 hrs, and then further incubated in DMEM, 2% BSA, 30 ng/mL PDGF-BB with and without Peptide 5 (P5) at 37° C. for 1 week. Proliferation was estimated by the XTT assay (Promega) according to the manufacturer's instructions (mean±SD, n=4).

Chain of TGF-β1 binding to intact human plasma FN (P02751 610-812 limits assumed): as the sequence (P02751 610-812 limits assumed) above
Chain of TGF-β1 binding to intact human plasma FN (P02751 1815-2080 limits assumed): as the sequence (P02751 1815-2080 limits assumed) above

Proportion of full-length TGF-β1 bound to immobilized FN [1]: decreased with increasing concentration
Sequence: CCVRQLYIDFRKDLG [synthetic peptide homologous to TGF-β1]

Proportion of full-length PDGF-BB bound to immobilized FN [2]: decreased with increasing concentration
Sequence: CKTRTEVFEISRRLI [synthetic peptide homologous to PDGF-BB]

Sequence: QPSHISKYILRWRPK [P5, QPSHISKYILRWRPK]
FN null cell survival and proliferation [3]: supported FN null cell survival and proliferation
AHDF proliferation response to PDGF-BB [4]: enhanced AHDF proliferation response to PDGF-BB

Source: patent publication US8759300B2, “Polypeptides and methods of use” (The Research Foundation for the State University of New York, priority 2007, dated 2014)
